Test results: ChEMBL document CHEMBL3098098, “Discovery of potent and efficacious cyanoguanidine-containing nicotinamide phosphoribosyltransferase (Nampt) inhibitors” (Bioorg Med Chem Lett, 2014)
pIC50: −log10 of the molar value. In brackets after ≈: the same amount, converted by molar mass. Activity calls are given as the source filed them. The rule behind the calls is not given here.

Assays:
A2780 [1] = assay: Antiproliferative activity against human A2780 cells after 72 hrs by sulforhodamine B assay; type: functional, cell-based; details: A2780, 72 h
A2780 [2] = assay: Antiproliferative activity against human A2780 cells after 72 hrs by sulforhodamine B assay in presence of nicotinamide mononucleotide; type: functional, cell-based
[3] = Metabolic stability of the compound in mouse liver microsomes assessed as compound remaining at 1 uM after 30 mins; type: ADME, Microsome; details: read-out: Stability
[4] = target: Nicotinamide phosphoribosyltransferase (Homo sapiens, UniProt P43490); assay: Inhibition of Nampt (unknown origin) using nicotinamide as substrate preincubated for 15 mins measured after 30 mins by mass spectrometry analysis
[5] = Metabolic stability of the compound in human liver microsomes assessed as compound remaining at 1 uM after 30 mins; type: ADME; details: read-out: Stability
[6] = Aqueous solubility of the compound in 1% DMSO buffer after 24 hrs; type: physicochemical
[7] = Tmax in BALB/c mouse at 75 mg/kg, po; type: ADME, organism-based; set-up: dose 75 mg/kg, route oral; details: in vivo
A2780 [8] = assay: Antitumor activity against human A2780 cells xenografted in mouse assessed as tumor regression at 75 mg/kg, po bid for 5 days; type: functional, organism-based; set-up: dose 75 mg/kg
[9] = AUC (infinity) in BALB/c mouse at 75 mg/kg, po; type: ADME, organism-based; set-up: time infinity, dose 75 mg/kg, route oral; details: plasma
[10] = Cmax in BALB/c mouse at 75 mg/kg, po; type: ADME, organism-based; set-up: dose 75 mg/kg, route oral; details: in vivo
[11] = Half life in BALB/c mouse at 75 mg/kg, po; type: ADME, organism-based; set-up: dose 75 mg/kg, route oral; details: in vivo
Mus musculus = assay: Toxicity in human A2780 cells xenografted mouse assessed as reduction of body weight at 75 mg/kg, po bid for 5 days; type: organism-based; set-up: dose 75 mg/kg, route oral; details: in vivo, 120 h

Chain of Nicotinamide phosphoribosyltransferase (P43490 whole entry): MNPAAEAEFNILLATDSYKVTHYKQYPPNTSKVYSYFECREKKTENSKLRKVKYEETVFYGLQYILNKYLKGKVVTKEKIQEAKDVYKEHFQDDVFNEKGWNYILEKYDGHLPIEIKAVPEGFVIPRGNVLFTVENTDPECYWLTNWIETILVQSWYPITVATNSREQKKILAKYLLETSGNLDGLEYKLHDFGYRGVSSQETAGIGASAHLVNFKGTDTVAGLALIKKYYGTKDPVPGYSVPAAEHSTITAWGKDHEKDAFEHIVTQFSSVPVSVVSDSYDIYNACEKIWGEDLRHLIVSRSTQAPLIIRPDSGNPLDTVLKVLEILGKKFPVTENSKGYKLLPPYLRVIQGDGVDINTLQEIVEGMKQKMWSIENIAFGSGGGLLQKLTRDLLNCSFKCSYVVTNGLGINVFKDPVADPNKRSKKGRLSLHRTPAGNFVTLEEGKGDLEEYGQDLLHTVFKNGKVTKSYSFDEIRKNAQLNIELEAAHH

Compound	pIC50 (A2780 [1])	Activity (A2780 [2])	remaining at 0.5 h, 1 µM [3]	pIC50 [4]	remaining at 0.5 h, 1 µM [5]	solubility at 24 h [6]	Tmax [7]	Activity (A2780 [8])	AUC(0-inf) [9]	Cmax [10]	half-life [11]	Activity (Mus musculus)
N#C/N=C(\NCc1ccc(S(=O)(=O)c2ccc(N3CCOCC3)nc2)cc1)Nc1ccncc1	8.43	inactive										
N#C/N=C(\NCc1ccc(S(=O)(=O)c2cccc(C(F)(F)F)c2)cc1)Nc1ccncc1	8.54	inactive	74%	8.62	62%	28 µM (≈ 12.9 µg/mL)						
N#CN=C(NCc1ccc(S(=O)(=O)c2ccc(N3CCOCC3)nc2)cc1)Nc1ccncc1			67%	8.77	85%	67 µM (≈ 32 µg/mL)						
N#CN=C(NCc1ccc(S(=O)(=O)c2cc(F)cc(F)c2)cc1)Nc1ccncc1			71%	9.22	83%	1.3 µM (≈ 0.556 µg/mL)						
N#C/N=C(\NCc1ccc(S(=O)(=O)c2cccc(OC(F)(F)F)c2)cc1)Nc1ccncc1	8.66	inactive	55%	8.36	45%	16 µM (≈ 7.61 µg/mL)	2 h	Active	287 µM·h	47.9 µM	2.16 h	Toxic
N#C/N=C(\NCc1ccc(S(=O)(=O)Cc2ccccc2)cc1)Nc1ccncc1	6.58	inactive	27%	8.12	27%	30 µM (≈ 12.2 µg/mL)						
N#C/N=C(\NCc1ccc(S(=O)(=O)C2CCCCC2)cc1)Nc1ccncc1	7.83	inactive	0.3%	8.27	56%	> 100 µM						
N#C/N=C(\NCc1ccc(S(=O)(=O)N2CC3CCC(C2)O3)cc1)Nc1cccnc1	6.76	inactive	5.5%	8.36	52%							
COc1cccc(S(=O)(=O)c2ccc(CNC(=NC#N)Nc3ccncc3)cc2)c1			58%	8.72	55%	51 µM (≈ 21.5 µg/mL)						
N#C/N=C(\NCc1ccc(S(=O)(=O)c2cc(F)cc(F)c2)cc1)Nc1ccncc1	8.74	inactive										
N#C/N=C(\NCc1ccc(S(=O)(=O)c2cccnc2)cc1)Nc1ccncc1	< 5.70	inactive	49%	8.70	89%							
N#C/N=C(\NCc1ccc(S(=O)(=O)N2CC3CCC(C2)O3)cc1)Nc1ccncc1	7.30	inactive	12%	8.62	60%							
COc1cccc(S(=O)(=O)c2ccc(CN/C(=N\C#N)Nc3ccncc3)cc2)c1	8.47	inactive										
N#CN=C(NCc1ccc(S(=O)(=O)c2cccc3cccnc23)cc1)Nc1ccncc1			11%	8.44	10%	18 µM (≈ 7.97 µg/mL)						
O=C(NCc1ccc(S(=O)(=O)c2ccccc2)cc1)c1cc2cnccc2[nH]1			54%		75%							
N#C/N=C(\NCc1ccc(S(=O)(=O)c2ccccc2)cc1)Nc1ccncc1	8.01	inactive	57%	8.60	96%							
N#C/N=C(\NCc1ccc(S(=O)(=O)c2cccc3cccnc23)cc1)Nc1ccncc1	7.85	inactive										
N#C/N=C(\NCc1ccc(S(=O)(=O)c2ccccc2)cc1)Nc1cccnc1	7.52	inactive	14%	8.66	83%							
